Measurements published in patent publication US8889345B2, “Detection methods of NADP(H) using mBFP” (priority 2012, dated 2014).
Each block holds one molecule with its values, some of them ahead of it.

Tests used:
[1] = target: Alcohol dehydrogenase; experiment: Inhibitor IC50 against NADPH dependent oxidoreductase, by his-mBFP fluorescence quantification of NADPH; format: biochemical; conditions: compounds added at 0.1 to 10 mM, sigma plot
Protocol: (§1) As an example of typical reactions, first, 0.02 units of glutathione reductase was reacted with 50 mM potassium phosphate buffer (pH 7.5) containing 5 mM of oxidized glutathione (GSSG) and 2 mM NADPH at room temperature, and then fluorescence was measured. In addition, 0.03 units of isocitrate dehydrogenase was reacted with 50 mM phosphate buffer (pH 7.2) containing 5 mM isocitrate, 2 mM MgCl2, and 2 mM NADP+ at room temperature, and then fluorescence was measured. In addition, 0.02 units of glucose-6-phosphate dehydrogenase was reacted with 50 mM Tris-HCL buffer (pH 7.5) containing 5 mM glucose-6-phosphate, 50 mM MgCl2, and 2 mM NADP+ at room temperature, and then fluorescence was measured. Further, 0.04 units of malate dehydrogenase was reacted with 50 mM Tris-HCL buffer (pH 7.5) containing 5 mM L-malate, 50 mM MgCl2, and 2 mM NADP+ at room temperature, and then fluorescence was measured. In addition, 0.02 units of NADPH oxidase was reacted with 50 mM phosphate buffered saline (PBS) containing 50 mM MgCl2 and 2 mM NADP+ at room temperature, and then fluorescence was measured. At the time of measuring the fluorescence, the reaction solution was diluted in consideration of mole ratio with his-mBFP.
(§2) In addition, the present invention may selectively select an activity inhibitor by restricting the library in the above-mentioned process with a clone having an oxidation/reduction enzyme family, adding a specific compound as well as a substrate in a process of measuring the activities of these enzymes, calculating a changed amount of NADP(H) to compare the calculated value with that of a control group (only substrate was add). These processes mean that after clones having related enzyme activities are cultured and a substrate and NADP(H) are added thereto, a changed amount of NADPH is quantified while inducing a reaction in an environment in which various synthetic materials are present.
(§3) In more detail, compounds having a possibility as the activity inhibitor were added to reaction solution of NADPH dependent oxidoreductase as in Example 7 at each concentration (0.1 to 10 mM). While the reaction was carried out, a produced amount of NADPH according to addition of each compound was quantified, and an inhibition degree of specific enzyme activity was confirmed by comparing the produced amount of NADPH in the case of adding the compound (test group) with that of in the case of not adding (control group).
(§4) After rates of NADPH production (reduction) reaction according to the concentration changes of primary selected compounds were measured, IC50 of each compound was calculated using a sigma plot program.

[2] = target: T1, Glucose-6-phosphate dehydrogenase (UniProt P11412); experiment: as above; format: biochemical; conditions: compounds added at 0.1 to 10 mM, sigma plot
T1 sequence (P11412 1-505): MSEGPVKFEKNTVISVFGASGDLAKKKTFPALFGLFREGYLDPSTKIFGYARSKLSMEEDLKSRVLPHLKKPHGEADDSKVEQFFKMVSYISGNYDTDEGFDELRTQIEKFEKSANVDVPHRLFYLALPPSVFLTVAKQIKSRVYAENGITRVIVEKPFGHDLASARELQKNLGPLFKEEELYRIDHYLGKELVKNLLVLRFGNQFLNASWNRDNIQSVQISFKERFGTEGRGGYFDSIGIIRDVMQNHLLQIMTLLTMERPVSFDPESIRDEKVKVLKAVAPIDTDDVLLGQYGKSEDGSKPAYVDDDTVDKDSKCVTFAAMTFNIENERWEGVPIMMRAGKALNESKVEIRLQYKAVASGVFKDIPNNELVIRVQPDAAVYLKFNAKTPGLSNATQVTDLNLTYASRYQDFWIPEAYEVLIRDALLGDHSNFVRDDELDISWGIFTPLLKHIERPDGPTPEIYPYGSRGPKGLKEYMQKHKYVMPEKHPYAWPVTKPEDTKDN
Protocol: as §1, §2, §3, §4

[3] = target: Isocitrate dehydrogenase; experiment: as above; format: biochemical; conditions: compounds added at 0.1 to 10 mM, sigma plot
Protocol: as §1, §2, §3, §4

[4] = Retention of fluorescence of his-mBFP according to storage method; format: physicochemical
Protocol: In order to search a long-term storage method for his-mBFP requiring retention of the structure that is an important factor in fluorescence activity, suitable protein storage methods were observed. As storage conditions, degrees of reduction of fluorescence according to time were confirmed at different temperatures (4° C., −20° C., −80° C.) and different concentrations of additives for storage (5% trehalose, 25% glycerol, 50% glycerol, based on final concentration).
Among his-mBFP samples stored under each of the conditions, in the case of frozen samples, the sample was sufficiently hydrated in a cool buffer for 5 to 45 minutes in consideration of reconstruction of the structure, time required for restoration, or the like, and then was used in the experiment.

- IC50 [1]: 40.6 ± 5.8 µM
Molecule: Cc1cn[nH]c1 [Formepizole]

Molecule: O=C(O[C@@H]1Cc2c(O)cc(O)cc2O[C@H]1c1cc(O)c(O)c(O)c1)c1cc(O)c(O)c(O)c1 [gallocatechin gallate]
- IC50 [2]: 225 ± 28.6 µM

Molecule: CC(O)(C(=O)O)C(CC(=O)O)C(=O)O (stereo not drawn) [methylisocitric acid]
- IC50 [3]: 102 ± 7.4 µM

Molecule: O=C(O[C@@H]1Cc2c(O)cc(O)cc2O[C@@H]1c1ccc(O)c(O)c1)c1cc(O)c(O)c(O)c1 [epicatechin gallate]
- IC50 [2]: 235 ± 37.8 µM

- IC50 [1]: 61.2 ± 4.1 µM
Molecule: COc1ccc(/C=C/c2cc(O)cc(O[C@@H]3O[C@H](CO)[C@@H](O)[C@H](O)[C@H]3O)c2)cc1O [Rhaponticin]

Molecule: O=C(O)C(=O)C(C(=O)O)C(O)C(=O)O (stereo not drawn) [oxalomalic acid]
- IC50 [3]: 63.3 ± 5.2 µM

- IC50 [1]: 48.9 ± 4.9 µM
Molecule: OC[C@H]1O[C@@H](Oc2cc(O)cc(/C=C/c3ccc(O[C@@H]4O[C@H](CO)[C@@H](O)[C@H](O)[C@H]4O)cc3O)c2)[C@H](O)[C@@H](O)[C@@H]1O [Mulberroside A]

B1: his-mBFP: metagenome-derived blue fluorescent protein with histidine tag, amino acid sequence SEQ ID NO: 3 (protein)
chain: MRGSHHHHHHGSACQNLNGKVAFVTGGSRGIGAAIVRRLAADGADIAFTYVSASSKNVATALVQELEAKGRRARAIQADSADPAQVRQAVEQAIVQLGPVDVLVNNAGIFLAGPLGEVTLDDYERTMNINVRAPFVAIQAAQASMPDGGRIINIGSCLAERAGRAGVTLYAASKSALLGMTRGLARDLGARGITANVVHPGPIDTDMNPADGERSGELVAVLSLPHYGEVRDIAGMVAFLAGPDGRYVTGASLAVDGGFAA
modifications: synthetic construct of His-tagged metagenome-derived blue fluorescent protein (mBFP)
- fluorescence maintained ([4]; after 6 months, additive (25% to 50%) added): ≥ 90%
- fluorescence maintained ([4]; both cool and frozen conditions after 6 months): ≥ 80%
- fluorescence maintained ([4]; cold room at 4° C. for 2 months, solution state, no additive for storage): ≥ 80%
- fluorescence maintained ([4]; freezer at −20 to −80° C. for 2 months with an additive for storage): ≥ 95%
- fluorescence intensity maintained ([4]; glycerol final concentration 50%, freezer at −80° C.): ≥ 90%
